The text below walks through data of US20250009695A1, “COMPOSITIONS AND METHODS FOR PROMOTING GLYCOGEN SYNTHASE ACTIVITY AND AUGMENTING GLYCOGEN STORAGE CAPABILITY” (NANJING NUTRABUILDING BIO-TECH CO., LTD., priority 2021, published 2025).

Test [1] in a line: Effect of BAIBA on liver and skeletal muscle glycogen content in normal mice (ELISA kits). Format: in vivo, C57 mice. Conditions: oral gavage 2 weeks, compared to Exercise group; for glycogen levels in liver tissue (change, in words): FIG. 1; for glycogen levels in muscle tissue (change, in words): FIG. 3. The protocol: (§1) SPF-grade male C57 mice (8 weeks old) were purchased from Nanjing Qinglongshan Laboratory Animal Breeding Center. Mice were housed individually in a steel cage in a room at 24° C. with a 12:12 h (Light:Dark) photoperiod and standard diet. Food and water were provided ad libitum. Forty mice were randomly divided into five groups. Control Group: Receiving neither exercise nor L-BAIBA treatment. Exercise Group: Receiving only exercise and no L-BAIBA treatment. BAIBA Group: Receiving only L-BAIBA treatment and no exercise. Pre-workout Group: Receiving L-BAIBA treatment before exercise. Post-workout Group: Receiving L-BAIBA treatment after exercise. Samples were administered orally (gavage volume was 0.1 mL/10 g per mouse) via a gavage tube for 2 weeks.
The exercise consisted of treadmill running at a speed of 3.0 m/min with no inclination of the treadmill. Mice were allowed to freely explore the treadmill until each mouse had explored its lane and the treadmill was turned on with a slow increase in the speed until animals begin running at set speed. During the first week of the treatment period, as an introduction the mice were forced to running exercise for 8 minutes. Subsequently, the exercise duration was increased to 9 minutes during the following week. The exercise duration was finally set to 10 minutes daily for the rest of weeks.
After 30 minutes of exercise on day 14th, mice were injected with 0.1 to 0.3 ml 1% thiopental sodium intraperitoneally in order to general anesthesia. The soleus of the hind limbs of mice and liver were taken to detect the content of glycogen contents and glycogen synthetase with ELISA Kits.

Test [2] can be described thus: Effect of oral BAIBA administration on liver and skeletal muscle glycogen levels in obese (HFD) mice. Conditions: for hepatic glycogen levels (change, in words) / muscle glycogen levels (change, in words): HFD mice, better than exercise alone; for Liver glycogen / Muscle glycogen: obese mice on HFD, oral, week 9-16, P < 0.05 vs Model; for Liver glycogen: main lobe of liver; for Muscle glycogen: soleus muscle. Format: in vivo. From the text: Post quarantine, animals were acclimatized for one week and subsequently the animals were randomized based on body weight stratification. Initially, mice were allocated broadly into two groups with one group receiving the Normal Diet (ND) representing normal subjects and the other receiving a defined High Fat Diet (HFD) representing obese subjects. The HFD was a defined lard-based diet procured from Research Diets, New Jersey, USA (Product No.—D12492, with 60 Kcal % from fat, 20 Kcal % from proteins, and 20 Kcal % from carbohydrates; Lot no. 20050105 and expiry date 30 Nov. 2020). The ND was a defined control diet procured from Hylasco Biotechnology Pvt. Ltd, manufactured by PMI Nutrition International (Batch no. MAY06202 and expiry date February 2021) containing similar nutrients as HFD but with 13 Kcal % from fat, 17 Kcal % from proteins, and […].
The mice in the respective groups were put on ND and HFD for 8 weeks starting at age of ˜8 weeks. Food was offered twice a week by replacing the left-over feed with fresh feed and total weekly feed consumption was calculated and expressed as g feed/day/animal. Bodyweight was recorded once a week. At the end of 8 weeks (Day 57), mean body weight was measured, and animals were randomized based on body weight stratification and grouped separately into respective ND and HFD groups shown in the following experimental design. After the feeding/induction period (Week 1 to 8), the treatment period was from Week 9 to Week 16. A total of 36 mice were randomly grouped into six groups with n=6 in each group. Control Group: Normal mice, maintained on normal diet for 8 weeks, receiving neither exercise nor L-BAIBA treatment. Model Group: Obese mice, maintained on HFD for 8 weeks, receiving neither exercise nor L-BAIBA treatment. Exercise Group: Obese mice, maintained on HFD for 8 weeks, receiving only exercise and no L-BAIBA treatment. BAIBA Group: Obese mice, maintained on HFD for 8 weeks, receiving only LBAIBA treatment and no exercise. Exercise+BAIBA Group: Obese mice, maintained on HFD for 8 weeks, receiving L-BAIBA treatment and exercise.
A regular treadmill (PowerMax) used by humans was availed for subjecting mice to daily exercise. A special lane box made of Perspex was used to fabricate the treadmill's running platform, forming a modified 6-lane rodent treadmill allowing 6 animals to run simultaneously. The mice in the specified groups were exercised daily throughout the treatment period (week 9-16). Exercise consisted of treadmill running at a speed 3.0 m/min with no inclination of the treadmill. Mice were allowed to freely explore the treadmill until each mouse had explored its lane and the treadmill was turned on with a slow increase in the speed until animals begin running at set speed. During the first week of the treatment period, as an introduction the mice were forced to running exercise for 8 minutes. Subsequently, the exercise duration was increased to 9 minutes during the following week. The exercise duration was finally set to 10 minutes daily for the rest of weeks. Exercise took place in a room separated from the actual housing room to which all mice were transferred and kept during the exercise procedures in order to minimize environmental confounders among the mice not subjected to the exercise protocol. […] Entire procedure was supervised by study personnel and no abnormal behavior of animals was observed. Forced treadmill exercise was carried out at preferred lux and noise free conditions.
After completion of 8 weeks of experimentation (at the end of treatment on the day 114), animals were euthanized using an overdose of isoflurane (20% v/v in propylene glycol in a glass vacuum desiccator). The whole soleus muscle tissues and a sample of the main lobe of the liver were used to measure glycogen content using a modified protocol described in Methods in Enzymology Vol. III (Colowick and Kaplan, 1957).

The test system of test [3] is glycogen synthetase. Description: Effect of BAIBA on muscle glycogen synthetase content in normal mice (ELISA kits). The conditions noted are these: L-BAIBA administration, oral gavage 2 weeks, soleus, FIG. 4. It counts as in vivo, C57 mice. The protocol:
as §1
The exercise consisted of treadmill running at a speed of 3.0 m/min with no inclination of the treadmill. Mice were allowed to freely explore the treadmill until each mouse had explored its lane and the treadmill was turned on with a slow increase in the speed until animals begin running at set speed. During the first week of the treatment period, as an introduction the mice were forced to running exercise for 8 minutes. Subsequently, the exercise duration was increased to 9 minutes during the following week. The exercise duration was finally set to 10 minutes daily for the rest of weeks. […]

[4] abbreviates: Post-workout Group (L-BAIBA after exercise).
Where [5] appears, read: Pre-workout Group (L-BAIBA before exercise).
[6] abbreviates: combination of L-BAIBA and exercise.
Where [7] appears, read: L-BAIBA treatment and daily treadmill exercise.
The mark [8] stands for this setting: L-BAIBA treatment only, no exercise.

As for `CC(CN)C(=O)O` (stereo not drawn) [BAIBA, β-aminoisobutyric acid], in test [1] (setting [4]), the “glycogen levels in liver tissue (change, in words)” value was “increase” and the “glycogen levels in muscle tissue (change, in words)” value is recorded as “increase”. Moreover, in test [1] (setting [5]), the “glycogen levels in liver tissue (change, in words)” value was “increase” and the “glycogen levels in muscle tissue (change, in words)” value is recorded as “increase”. Also, in test [2] (L-BAIBA administration alone), the “hepatic glycogen levels (change, in words)” value is on record as “significant increase” and the “muscle glycogen levels (change, in words)” value was “significant increase”. In addition, in test [2] (setting [6]), the “hepatic glycogen levels (change, in words)” value is on record as “significant increase” and the “muscle glycogen levels (change, in words)” value is given as “significant increase”. In test [2] (setting [7]), the Liver glycogen came out at 9.95 ± 0.61 mg/g tissue and the Muscle glycogen stood at 0.29 ± 0.08 mg/g tissue. Further, in test [2] (setting [8]), the Liver glycogen stood at 9.66 ± 1.19 mg/g tissue and the Muscle glycogen is 0.31 ± 0.06 mg/g tissue. Further, in test [3], the “muscle glycogen synthetase content (change, in words)” value is reported as “significant increase”.
